These results are taken from PMC7450057, “Enhancing intracellular accumulation and target engagement of PROTACs with reversible covalent chemistry” (Nature Communications, 2020).

The nature of data set [1]: Permeability by lipid-PAMPA method (Pharmaron). Type of data set: in vitro ADME. The note with it: for recovery at 16 h, 10 μM: PAMPA. As for the experimental part: The permeability of compounds was measured using Lipid-PAMPA method by Pharmaron. Preparation of stock solutions: testosterone and methotrexate were used as control compounds in this assay. The stock solutions of positive controls were prepared in DMSO or acetonitrile at the concentration of 10 mM. Prepare a stock solution of compounds in DMSO at the concentration of 10 mM, and further dilute with PBS (pH 7.4). […]
Assay procedures: prepare a 1.8% solution (w/v) of lecithin in dodecane, and sonicate the mixture to ensure a complete dissolution. Carefully pipette 5 μL of the lecithin/dodecane mixture into each acceptor plate well (top compartment), avoiding pipette tip contact with the membrane. Immediately after the application of the artificial membrane (within 10 min), add 300 μL of PBS (pH 7.4) solution to each well of the acceptor plate. Add 300 μL of drug-containing solutions to each well of the donor plate (bottom compartment) in triplicate. Slowly and carefully place the acceptor plate into the donor plate, making sure the underside of the membrane is in contact with the drug-containing solutions in all wells. Replace the plate lid and incubate at 25 °C, 60 rpm for 16 h. After incubation, aliquots of 50 μL from each well of acceptor and donor plate are transferred into a 96-well plate. Add 450 μL of methanol (containing IS: 100 nM Alprazolam, 200 nM Caffeine, 100 nM Tolbutamide) into each well. Cover with plate lid. Vortex at 750 rpm for 100 s. Samples were centrifuged at 3220 × g for 20 min. Determine the compound concentrations by LC/MS/MS. The effective permeability (Pe), in units of centimeter per second, can be calculated using the following equation: LogPe=LogC×−Ln1−drugacceptor/drugequilibrium
On the technique in general: In PAMPA a lipid-coated filter parts donor from acceptor wells.

Another data set deals with BTK C481S mutant. The note with it: cited from earlier work.
A further data set relates to MOLM-14 cells. Briefly: AlamarBlue cell viability assay, MOLM-14. The note with it: for Cell viability, MOML-14: Supplementary Figure 7, replicates. Background: The colour change of resazurin is a common sign of viable cells or microbes.
For a further data set, the system named is Mino. Briefly: IC50 in MCL cell lines (Supplementary Table 2), Mino. The note with it: Mino; triplicates.
In another data set the test system is Rec-1. Briefly: IC50 in MCL cell lines (Supplementary Table 2), Rec-1. The note with it: for Cell Viability (%): Rec-1 cells, replicate wells.
A further data set deals with Jeko-1. Description: IC50 in MCL cell lines (Supplementary Table 2), Jeko-1. The note with it: for Cell Viability (%): Jeko-1 cells, replicate wells.
The test system of a further data set is Maver-1. Description: IC50 in MCL cell lines (Supplementary Table 2), Maver-1. The note with it: Maver-1; triplicates.
The target of another data set is T1, NanoLuc-CRBN fusion (Homo sapiens, UniProt Q96SW2).
T1 construct: host or cells: HEK 293T/17
Briefly: NanoBRET CRBN in-cell target engagement assay. Type of data set: cell-based. The note with it: Figure 3h, replicates. As for the experimental part:
The target engagement assay for BTK or CRBN was from Promega (BTK kit, Cat. No. N2500; CRBN kit, Cat. No. CS1810C136) and was performed according to the manufacture’s instruction with some modifications. […] After 2 h incubation, the 3X Nano-Glo® Substrate with NanoLuc® extracellular inhibitor were added to cells and developed for 3 min at room temperature. BRET signals were collected using a BioTek SYNERGY H1 microplate reader equipped with a 450/80-nm BP filter for donor emission and a 610-nm LP filter for acceptor emission. BRET Ratio was calculated with the equation: [(Acceptor sample/Donor sample)–(Acceptor no tracer control/Donor no tracer control)] × 1000. The IC50 of the compound against its BTK or CRBN tracer was calculated using GraphPad Prism software.
On the technique in general: BRET reads energy transfer from a luciferase to a nearby fluorophore.

For data set [2], the system named is truncated Cereblon protein. Description: CRBN binding assay (fluorescence quenching). The conditions noted are these: for Fluorescence Intensity: Supplementary Figure 11, replicates. The method, then: The Kd values of compounds to CRBN were measured based on fluorescence quenching after compounds binding to CRBN. […] All the compounds were dissolved in DMSO (10 mM) as stock solutions. The final drug concentration is 100 nM. […] Fluorescence intensity values for control wells (assay buffer only) were subtracted from each data point prior to analysis. The Kd was calculated using GraphPad Prism with the following equation curve fit. I=I0−If×Kd/P0+Kd+If

The target of another data set is BTK (Homo sapiens, UniProt Q06187). Briefly: BTK degradation in MOLM-14 cells (western blot). Type of data set: cell-based. On the set-up: endogenous in cells; host or cells: MOLM-14.

Several values for one entry are separate records, joined by “and”; a condition that tells them apart may be missing. Equal entries are not always repeated. Entries after “also recorded” stand apart in the source; their conditions may differ. Where two headings read alike, the source gives them in different places.

Chain of BTK (Q06187 whole entry): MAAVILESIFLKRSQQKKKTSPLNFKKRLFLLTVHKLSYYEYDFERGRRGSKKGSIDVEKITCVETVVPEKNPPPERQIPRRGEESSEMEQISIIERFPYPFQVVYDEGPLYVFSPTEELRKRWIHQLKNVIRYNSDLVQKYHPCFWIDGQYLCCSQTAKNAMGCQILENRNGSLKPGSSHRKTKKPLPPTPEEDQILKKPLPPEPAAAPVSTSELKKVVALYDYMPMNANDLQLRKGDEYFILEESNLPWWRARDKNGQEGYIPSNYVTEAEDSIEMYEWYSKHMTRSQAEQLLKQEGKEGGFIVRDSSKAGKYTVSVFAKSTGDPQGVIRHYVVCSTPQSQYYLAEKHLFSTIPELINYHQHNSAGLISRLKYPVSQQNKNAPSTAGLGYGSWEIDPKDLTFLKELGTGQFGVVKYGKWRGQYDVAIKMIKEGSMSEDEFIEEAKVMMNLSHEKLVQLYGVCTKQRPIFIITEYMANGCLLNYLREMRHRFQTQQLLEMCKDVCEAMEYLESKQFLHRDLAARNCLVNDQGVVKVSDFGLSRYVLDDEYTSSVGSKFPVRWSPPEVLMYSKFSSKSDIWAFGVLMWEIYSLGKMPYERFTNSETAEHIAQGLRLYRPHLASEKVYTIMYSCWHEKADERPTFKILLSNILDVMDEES
T1 sequence (Q96SW2 whole entry, the tested form may be a part): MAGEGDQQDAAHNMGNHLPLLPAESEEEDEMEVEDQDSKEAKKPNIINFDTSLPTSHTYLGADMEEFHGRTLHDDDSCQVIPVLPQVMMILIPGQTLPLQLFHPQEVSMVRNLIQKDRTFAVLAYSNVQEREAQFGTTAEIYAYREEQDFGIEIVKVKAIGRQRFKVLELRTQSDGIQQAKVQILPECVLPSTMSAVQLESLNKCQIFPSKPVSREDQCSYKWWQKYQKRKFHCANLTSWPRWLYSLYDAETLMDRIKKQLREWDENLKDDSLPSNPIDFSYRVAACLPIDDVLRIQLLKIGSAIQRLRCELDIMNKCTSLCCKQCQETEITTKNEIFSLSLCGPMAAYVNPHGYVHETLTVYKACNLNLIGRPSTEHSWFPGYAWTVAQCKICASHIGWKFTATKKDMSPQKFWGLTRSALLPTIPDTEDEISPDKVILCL
T1 sequence (Q16531 whole entry partner, the tested form may be a part): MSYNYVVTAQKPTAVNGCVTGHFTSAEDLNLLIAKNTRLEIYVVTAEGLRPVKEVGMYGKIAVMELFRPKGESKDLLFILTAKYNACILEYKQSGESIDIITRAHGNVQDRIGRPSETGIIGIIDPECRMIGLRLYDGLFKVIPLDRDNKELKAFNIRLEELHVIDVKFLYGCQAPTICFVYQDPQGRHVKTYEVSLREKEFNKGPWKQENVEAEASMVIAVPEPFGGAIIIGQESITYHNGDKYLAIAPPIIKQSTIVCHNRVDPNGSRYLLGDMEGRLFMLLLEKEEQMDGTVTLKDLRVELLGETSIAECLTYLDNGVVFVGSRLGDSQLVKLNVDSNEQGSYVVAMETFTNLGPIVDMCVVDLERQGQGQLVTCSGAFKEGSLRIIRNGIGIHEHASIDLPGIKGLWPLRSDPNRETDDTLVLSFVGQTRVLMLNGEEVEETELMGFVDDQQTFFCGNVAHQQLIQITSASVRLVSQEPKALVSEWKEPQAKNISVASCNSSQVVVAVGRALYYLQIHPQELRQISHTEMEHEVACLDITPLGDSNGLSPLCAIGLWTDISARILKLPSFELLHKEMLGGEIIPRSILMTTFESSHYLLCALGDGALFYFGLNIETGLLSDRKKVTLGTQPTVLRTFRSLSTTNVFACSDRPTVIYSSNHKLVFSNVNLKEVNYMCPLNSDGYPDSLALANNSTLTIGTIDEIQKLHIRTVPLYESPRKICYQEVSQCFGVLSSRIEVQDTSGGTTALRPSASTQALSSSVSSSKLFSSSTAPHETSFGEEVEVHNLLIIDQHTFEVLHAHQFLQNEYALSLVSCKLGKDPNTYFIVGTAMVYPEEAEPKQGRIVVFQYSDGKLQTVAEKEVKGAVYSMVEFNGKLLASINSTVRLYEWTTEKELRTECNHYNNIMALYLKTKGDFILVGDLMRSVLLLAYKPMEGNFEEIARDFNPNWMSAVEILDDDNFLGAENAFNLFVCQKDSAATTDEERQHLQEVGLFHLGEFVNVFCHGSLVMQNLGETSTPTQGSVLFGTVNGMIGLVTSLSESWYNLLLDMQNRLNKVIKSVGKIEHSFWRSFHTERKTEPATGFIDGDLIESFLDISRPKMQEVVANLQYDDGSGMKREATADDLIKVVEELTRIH

`CN(Cc1cnc2nc(N)nc(N)c2n1)c1ccc(C(=O)N[C@@H](CCC(=O)O)C(=O)O)cc1` [Methotrexate, methotrexate, reference compound] had a recovery at 16 h, 10 μM in data set [1] (Recovery%) of 105%.

The IC50 is the midpoint of a concentration-inhibition curve. In the case of `C=CC(=O)N1CCC[C@@H](n2nc(-c3ccc(Oc4ccccc4)cc3)c3c(N)ncnc32)C1` [IRC-Ctrl, ibrutinib, reference compound], the IC50 in the data set with BTK C481S mutant is 0.0046 µM; in the data set on MOLM-14 cells (Homo sapiens, MOLM-14, 72 h, read-out: Cell viability IC50) it was 0.33 µM; in the data set with Mino it was 3.8 µM; with Rec-1 (Rec-1, triplicates) it was 6.2 µM; in the data set with Jeko-1 (Jeko-1, triplicates), 0.3 µM; in the data set with Maver-1 it was 5.4 µM. In addition, the “Cell viability, MOML-14” value with MOLM-14 cells (drug concentration 1.00E-05 M) was 2.829 and 3.671 and 10.6075 and 4.63 and 7.964; in the data set on MOLM-14 cells (drug concentration 1.60E-08 M), 78.5123 and 71.6258 and 103.431 and 81.3409; with MOLM-14 cells (drug concentration 2.00E-06 M) it was 11.3315 and 13.8066 and 22.1242 and 13.453 and 22.4778; in the data set with MOLM-14 cells (drug concentration 3.20E-09 M), 74.4713 and 69.3023 and 89.0692 and 86.5941 and 80.2465; with MOLM-14 cells (drug concentration 4.00E-07 M), 35.4256 and 44.6356 and 55.26 and 47.599 and 43.2718; in the data set with MOLM-14 cells (drug concentration 6.40E-10 M) it was 87.7559 and 71.8279 and 83.9002. Besides, the “Cell viability, MOML-14” value in the data set with MOLM-14 cells (drug concentration 8.00E-08 M) was 71.3059 and 57.3983 and 86.3921 and 79.7919 and 76.879. Besides, the “Cell Viability (%)” value was 8.535% and 9.796% and 10.5906% in the data set on Rec-1 (1.50E-05 M); 74.3495% and 75.6404% and 76.9194% with Rec-1 (1.88E-06 M); 2.364% and 2.247% and 2.265% with Rec-1 (3.00E-05 M); 66.2063% in the data set with Rec-1 (3.75E-06 M); 84.8624% and 81.0762% and 81.5842% in the data set on Rec-1 (4.69E-07 M); 44.5947% and 45.7572% and 45.7871% in the data set on Rec-1 (7.50E-06 M). Further, the “Cell Viability (%)” value with Rec-1 (9.38E-07 M) was 81.9548% and 81.1808% and 88.2512%; with Jeko-1 (1.50E-05 M) it was 2.151% and 2.02% and 1.9313%; in the data set with Jeko-1 (1.88E-06 M), 2.568% and 2.43% and 2.412%; in the data set with Jeko-1 (3.00E-05 M), 2.333% and 2.338% and 2.111%; with Jeko-1 (3.75E-06 M), 2.338% and 2.397% and 2.358%; with Jeko-1 (4.69E-07 M) it was 5.039% and 20.4969% and 18.3979%. Moreover, the “Cell Viability (%)” value with Jeko-1 (7.50E-06 M) is 2.252% and 2.304% and 1.966%; in the data set on Jeko-1 (9.38E-07 M) it was 2.5504% and 5.547% and 2.871%.

The Kd is the free concentration of one partner at which half of the binding sites on the other are occupied at equilibrium, for simple one-to-one binding. Consider `Nc1cccc2c1C(=O)N(C1CCC(=O)NC1=O)C2=O` (stereo not drawn) [Pomalidomide, pomalidomide, reference compound], for which the “NanoBRET(%)” value at NanoLuc-CRBN fusion (drug concentration 1.00E-05 M) is 8.749% and 2.427%; on NanoLuc-CRBN fusion (drug concentration 1.60E-08 M) it was 79.9835% and 62.224% and 75.9099%; on NanoLuc-CRBN fusion (drug concentration 2.00E-06 M), 10.9943% and 16.7844%; on NanoLuc-CRBN fusion (drug concentration 3.20E-09 M), 86.2914% and 88.5513% and 84.0314%; at NanoLuc-CRBN fusion (drug concentration 4.00E-07 M), 54.7588% and 35.141% and 58.1892%; at NanoLuc-CRBN fusion (drug concentration 8.00E-08 M), 88.9359% and 73.8405% and 79.0012%. Also, the “Fluorescence Intensity” value is 9876.2 and 9503.2 and 9587.2 in [2] (CRBN 0 μM); 7603.2 and 7913.2 and 7829.2 in [2] (CRBN 0.734375 μM); 6654.2 and 6940.2 and 6542.2 in data set [2] (CRBN 1.46875 μM); 5927.2 and 5996.2 and 5981.2 in [2] (CRBN 2.9375 μM); 5201.2 and 5168.2 and 5152.2 in [2] (CRBN 5.875 μM); 4654.2 and 4688.2 and 4502.2 in data set [2] (CRBN 11.75 μM). Also, in data set [2] (CRBN 23.5 μM), the “Fluorescence Intensity” value was 4529.2 and 4338.2 and 4613.2. This compound also returned a Kd in data set [2] (truncated Cereblon protein, fluorescence quenching, triplicates) of 1.4 µM. Also, at BTK (Figure 2d, DMSO = 100 (mean)), the “Quantification anti-BTK / anti-β-actin (BTK level vs DMSO)” value came to 81.7787. On BTK (MOLM-14 cells, 200 nM, 24 h (Fig. 2d)), the “BTK degradation (in words)” value is recorded as “Neither RC-Ctrl, nor pomalidomide, nor a combination of both caused BTK degradation; also recorded: neither the RC-1 warhead, nor pomalidomide, nor a combination of both caused BTK degradation”.

As for `C[C@]12CC[C@H]3[C@@H](CCC4=CC(=O)CC[C@@]43C)[C@@H]1CC[C@@H]2O` [Testosterone, testosterone, reference compound], the recovery at 16 h, 10 μM in data set [1] (Mean, read-out: Recovery%) worked out at 91.1%; in data set [1] (single replicates, read-out: Recovery%), 88.7%. In addition, in [1] (single replicates), the Recovery% is 88.88% and 95.84%. The “-Log Pe” value in data set [1] (single replicates, 10 μM, PBS pH 7.4, 25 °C, 16 h, Pe in centimeter per second) was 4.51 and 4.29 and 4.30.
